Laboratory results: US20260174875A1 (Novo Nordisk A/S, priority 2023, published 2026)
Where two headings read alike, the source gives them in different places. Numbered stars: 1 amine (or outer) side, 2 acyl side, 3 side chain; on linkers, the order of the positions; unused ones are H or OH. Square brackets hold non-standard residues; d marks the D form. Side chains are listed from the residue outwards. * marks the point of attachment. C20 diacid = O=C(O)CCCCCCCCCCCCCCCCCCC(=O)*; γGlu = O=C(O)[C@H](CCC(=O)[*:2])N[*:1]; AEEA = NCCOCCOCC(=O)O; Aib = CC(C)(N)C(=O)O

Tests used:
Type in all cases: cell-based
[1] = target: T1, human amylin receptor (hAMYR3) (Homo sapiens, UniProt O60896+P30988); test: Amylin receptor assay, method B (CRE-luciferase reporter, BHK cells)
T1 construct: host or cells: BHK cells (Hollex-1 line expressing hCTR(a) and CRE-Luc), further transfected with human RAMP3
Outline: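 BHK cells with CRE-luciferase, co-expressing hAMYR3 and transfected with human RAMP3, seeded overnight, then exposed 3 h at 37 °C to compound. Buffer: phenol red-free DMEM, 10 mM HEPES, 1% ovalbumin, with 0% or 1% (w/v) HSA. Luminescence read after 30 min with steadylite Plus.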

[2] = target: T2, human GIP receptor (hGIPR) (Homo sapiens, UniProt P48546); test: GIP receptor assay, method B (CRE-luciferase reporter, BHK cells, 384-well)
T2 construct: expressed in transfected cells
T2 sequence (P48546 22-466): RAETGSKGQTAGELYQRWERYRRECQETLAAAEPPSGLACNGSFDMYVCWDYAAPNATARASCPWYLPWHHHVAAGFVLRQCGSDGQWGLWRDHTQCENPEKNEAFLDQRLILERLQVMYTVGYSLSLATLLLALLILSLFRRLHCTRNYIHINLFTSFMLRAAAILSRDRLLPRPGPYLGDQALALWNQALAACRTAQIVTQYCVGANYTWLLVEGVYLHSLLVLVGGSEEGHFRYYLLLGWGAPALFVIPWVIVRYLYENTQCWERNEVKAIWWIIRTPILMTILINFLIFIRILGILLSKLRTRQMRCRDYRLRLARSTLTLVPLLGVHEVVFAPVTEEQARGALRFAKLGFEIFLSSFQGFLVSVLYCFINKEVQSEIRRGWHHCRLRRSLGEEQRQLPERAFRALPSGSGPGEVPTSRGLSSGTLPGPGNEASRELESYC
Description: (§1) To assess how the activation of the receptors is potentially influenced by the presence of human serum albumin (HSA), the in vitro assays were performed in the absence of HSA and presence of 1% (w/v) HSA.
Activation of the human GIP receptor leads to increased intra-cellular concentrations of cyclic AMP (cAMP) and the consequent transcription activation from promoters containing multiple copies of the cAMP response element (CRE). It is thus possible to measure GIP receptor activity using a CRE-luciferase reporter gene introduced into Baby Hamster Kidney (BHK) cells co-expressing the human GIP receptor.
Cells at about 80-90% confluency were washed once with PBS (Gibco 14190-094) and detached from the cell flasks with Versene (Gibco, 15040-066). After centrifugation, the cells were counted, resuspended and diluted to approximately 1.5-3.0×10^6 (1.5E+6 to 3.0E+6) cells/mL in Recovery Cell Culture Freezing Medium (Gibco, 12648-010) and stored at −180° C. in suitable aliquots until use.
(§2) The assay buffer consisted of DMEM without phenol red (Gibco, 11880-028) supplemented with 1× GlutaMAX (Gibco, 35050-038), 10 mM HEPES (Gibco, 15630-056), 1% (w/v) ovalbumin (Sigma, A5503) and 0.1% (v/v) Pluronic F-68 (Gibco, 24040-032) either with HSA or without HSA (Sigma, A9511).
Serial dilutions were transferred to a 384-well assay plate (PerkinElmer/Revvity, 6007688) and mixed with an equal volume (10 μL) of assay buffer without or with 3% HSA (Sigma, A-9511). Frozen stocks of hGIPR BHK Cre-Luc cells were thawed in a 37° C. water bath, washed once in PBS (Gibco 14190-094), diluted to 1.5×10^5 (1.5E+5) cells/mL in assay buffer (without HSA) and added (10 μL) to each well of the 384-well assay plate. After a short centrifugation, the assay plates were incubated for 3 hours at 37° C. in 5% CO2 and let to equilibrated at room temperature for 10 minutes before the addition of 30 μL steadylite Plus™ (PerkinElmer/Revvity, 6066759) per well. Plates were sealed and incubated at room temperature with gentle shaking for 30 minutes while protected from light. Luminescence was detected on a luminescence plate reader e.g. a Synergy 2 (BioTek).

[3] = target: T3, human GLP-1 receptor (hGLP-1R) (Homo sapiens, UniProt P43220); test: GLP-1 receptor assay, method B (CRE-luciferase reporter, BHK cells, 384-well)
T3 construct: expressed in transfected cells
T3 sequence (P43220 24-463): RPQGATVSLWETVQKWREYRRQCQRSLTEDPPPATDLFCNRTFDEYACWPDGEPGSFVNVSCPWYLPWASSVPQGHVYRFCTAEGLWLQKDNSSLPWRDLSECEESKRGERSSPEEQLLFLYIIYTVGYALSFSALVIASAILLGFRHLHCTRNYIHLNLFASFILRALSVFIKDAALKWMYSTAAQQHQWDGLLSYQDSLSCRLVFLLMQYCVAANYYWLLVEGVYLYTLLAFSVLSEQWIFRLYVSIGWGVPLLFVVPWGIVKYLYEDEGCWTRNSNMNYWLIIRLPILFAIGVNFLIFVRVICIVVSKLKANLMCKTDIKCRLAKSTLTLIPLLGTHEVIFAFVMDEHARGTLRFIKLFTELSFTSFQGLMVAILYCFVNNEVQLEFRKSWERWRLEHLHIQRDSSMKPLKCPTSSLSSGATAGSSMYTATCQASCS
Description: as §1
Cells at approximately 80-90% confluence were washed once in PBS (Gibco 14190-094) and loosened from the cell flasks with Versene (Gibco, 15040-033). […] Cells were aliquoted and stored at −180° C. until use.
as §2
Serial dilutions were transferred to a 384-well assay plate (PerkinElmer/Revvity, 6007688) and mixed with an equal volume (10 μL) of assay buffer without or with 3% (w/v) HSA (Sigma, A-9511). Frozen stocks of hGLP-1R BHK Cre-Luc cells were thawed in a 37° C. water bath, washed once in PBS (Gibco 14190-094), diluted to 1.5×10^5 (1.5E+5) cells/mL in assay buffer (without HSA) and added (10 μL) to each well of the 384-well assay plate. After a short centrifugation, the assay plates were incubated for 3 hours at 37° C. in 5% CO2 and let to equilibrated at room temperature for 10 minutes before the addition of 30 μL steadylite Plus™ PerkinElmer/Revvity, 6066759) per well. Plates were sealed and incubated at room temperature with gentle shaking for 30 minutes while protected from light. Luminescence was detected on a luminescence plate reader e.g. a Synergy 2 (BioTek).

T1 sequence (P30988 25-474): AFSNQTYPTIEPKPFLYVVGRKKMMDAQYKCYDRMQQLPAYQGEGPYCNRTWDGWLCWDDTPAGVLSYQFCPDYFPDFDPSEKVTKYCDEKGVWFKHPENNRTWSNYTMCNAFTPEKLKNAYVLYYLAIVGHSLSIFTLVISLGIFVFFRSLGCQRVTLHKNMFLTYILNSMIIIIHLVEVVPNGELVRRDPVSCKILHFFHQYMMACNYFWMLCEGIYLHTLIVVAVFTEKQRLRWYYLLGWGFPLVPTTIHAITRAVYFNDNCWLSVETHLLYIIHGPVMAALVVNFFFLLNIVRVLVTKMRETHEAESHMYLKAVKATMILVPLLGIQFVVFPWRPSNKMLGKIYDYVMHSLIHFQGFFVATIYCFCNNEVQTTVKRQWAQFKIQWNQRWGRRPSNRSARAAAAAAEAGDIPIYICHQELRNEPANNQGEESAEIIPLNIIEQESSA
T1 sequence (O60896 24-148): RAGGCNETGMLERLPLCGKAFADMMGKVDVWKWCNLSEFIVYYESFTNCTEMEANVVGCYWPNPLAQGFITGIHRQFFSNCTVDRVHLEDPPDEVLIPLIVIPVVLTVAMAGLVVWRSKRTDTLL

Y[Aib]EGTFTSDYSILLEEQAAREFIEWLLAGGPSSGAGQAPGQAPGASHLSTAQTQRLSAELHK([AEEA-AEEA-γGlu-C20 diacid])LATLPRTETGSGSP-NH2 [Compound 115]
EC50 ([1]; hAMYR3 Potency, 1% HSA, EC50, methods B, in the presence of 1% HSA): 0.551 nM | EC50 ([1]; method B, absence of HSA, read-out: hAMYR3 Potency, no HSA, EC50): 0.00713 nM | EC50 ([2]; hGIPR Potency, 1% HSA, EC50, methods B, in the presence of 1% HSA): 0.0389 nM | EC50 ([2]; method B, absence of HSA, read-out: hGIPR Potency, no HSA, EC50): 0.0103 nM | EC50 ([3]; hGLP-1R Potency, 1% HSA, EC50, methods B, in the presence of 1% HSA): 0.0929 nM | EC50 ([3]; method B, absence of HSA, read-out: hGLP-1R Potency, no HSA, EC50): 0.0194 nM
